The target of assay [1] is T1, butyryl cholinesterase (BChE) (Equus caballus, UniProt P81908).
T1 construct: The AChE was derived from the electric eel, while BChE was obtained from equineserum; from tissue; host or cells: equine serum
Description: Anticholinesterase assay (Elman's test), BChE. The assay is classed as biochemical. The conditions noted are these: for inhibition at 62.5 µg/mL / inhibition at 125 µg/mL / inhibition at 500 µg/mL / inhibition at 1000 µg/mL / inhibition at 250 µg/mL: read-out: BChE Percent inhibition. The method, then: (§1) This assay employed two enzymes, namely acetylcholinesterase (AChE) and butyryl cholinesterase (BChE). The AChE was derived from the electric eel, while BChE was obtained from equineserum. The synthesized compounds were dissolved in phosphate buffer (0.1 M, pH 8.0). The enzymes AChE (518 U/mg) and BChE (7–16 U/mg) were diluted in a 0.1 M phosphate buffer to achieve concentrations of 0.03 U/mL and 0.01 U/mL, respectively. Preparations of ATchI (0.5 mM), DTNB (0.2273 mM), and BTchI (0.5 mM) were made in distilled water and stored at a low temperature of 8 °C. […] The solution was heated to 30 °C for 15 min, followed by the gradual addition of the substrate. Absorbance of the heated sample at 412 nm was measured using a double beam spectrophotometer. […] The percentage activity (A) and inhibition of the enzyme were determined by applying the rate of absorption as a function of time (V=ΔAbs/Δt) using the following equation (Equation (2)).(2) %Inhibition=V/Vmax×100 Where V = enzyme inhibition activity of products and Vmax = enzyme activity without test of product.

The next assay has as its system S. typhi. Description: Antibacterial agar well diffusion. The conditions noted are these: 6.25 mg/mL per well, 37 °C, 24 h; for zone of inhibition at 6250 µg/mL: Salmonella enterica, TYPHI. The class given is cell-based, Salmonella typhi (ATCC0650). An excerpt: (§2) The antibacterial assay was done for all compounds (1–6) as described in previous studies. The mean number of viable organisms per milliliter of stock suspensions containing Escherichia coli (ATCC25922), Pseudomonas aeruginosa (ATCC27853), Salmonella typhi (ATCC0650), and Staphylococcus aureus (NCTC25953) was uncovered using the surface viable counting method. Preparations of suspensions containing approximately 108–109 colony forming units (CFU) per milliliter were made. Aseptic nutritional agar was formulated and transferred onto petri dishes. Cultures of bacteria were uniformly distributed on agar surface using sterile brush sticks. Five wells, each with a diameter of 6 mm, were made in each plate using a sterile borer. Afterwards, a concentration of 6.25 mg/mL of each component was applied to separate wells. Cephradine, a readily accessible antibiotic, was employed as a reference standard at an equivalent concentration. Following sealing, the agar dishes were incubated at a controlled temperature of 37 °C for a period of 24 h. The zone of inhibition in the plates was determined, which represents the inhibition of bacterial growth. Each sample zone of inhibition diameter was evaluated, and the antibacterial effectiveness of each drug was quantified according to the mean diameter of the inhibition zone (in millimetres).
In general terms: In agar diffusion tests the substance spreads into inoculated agar from a disc or well.

Assay [2] in a line: ABTS free radical scavenging assay. The class given is biochemical. The method, then:
(§3) In accordance with the procedure described in the literature, the ABTS activity assay was applied to evaluate the free radical scavenging capabilities of the synthesized compounds (1–6). ABTS solution was prepared by mixing 7 mM ABTS and 2.45 mM potassium persulfate and was then placed for 16 h under dark at room temperature. A methanol dilution was performed on the solution to achieve an absorbance of 0.706 ± 0.001 at 734 nm before starting the assay. To quantify the assay, 3 mL of the ABTS solution has been added to different concentrations (ranging from 62.5 to 1000 μg/mL) of every compound (300 μL) that were dissolved in methanol. Then after 1 min of incubation, the absorbance was continuously measured for 5 min. To confirm precision, all experiments were conducted in triplicate. The antioxidant capacities of the compounds were assessed with gallic acid as a reference, and the ability to remove free radicals was calculated as a percentage for each compound employing Equation.1 as presented below. Additionally, the DPPH free radical scavenging method was employed to assess the antioxidant activity of compounds (1–6), in accordance with a widely recognized procedure documented in existing literature. Concentrations ranging from 62.5 to 1000 μg/mL of compounds (1–6), dissolved in methanol, were introduced into a 2 mL solution of DPPH (0.002 % in methanol). The resulting solutions were kept in the dark at room temperature for a duration of 30 min. The amount of light absorbed by the solutions was then determined using a UV/vis spectrophotometer at a wavelength of 517 nm. The investigations were performed three times, using the exact protocol described for the ABTS scavenging assay. Afterwards, the antioxidant capabilities of each molecule were assessed using calculation.(1) Scavengingactivity(%)=A−B/A×100
(§4) Where, A = absorbance of ABTS/DPPH and B = absorbance of solution containing ABTS/DPPH and test samples.

Assay [3] in a line: DPPH free radical scavenging assay. The class given is biochemical. As to the method: as §3, §4
(In general: Loss of DPPH colour is used to gauge radical scavenging.)

For the next assay, the system named is P. aeruginosa. Description: Antibacterial agar well diffusion. The class given is cell-based, Pseudomonas aeruginosa (ATCC27853). The following applies: Pseudomonas aeruginosa, 24 h, 6.25 mg/mL per well, 37 °C.
Description: as §2

The target in assay [4] is T2, acetylcholinesterase (AChE) (Electrophorus electricus, UniProt O42275).
T2 construct: The AChE was derived from the electric eel, while BChE was obtained from equineserum; from tissue; host or cells: electric eel (tissue not specified)
T2 sequence (O42275 24-633): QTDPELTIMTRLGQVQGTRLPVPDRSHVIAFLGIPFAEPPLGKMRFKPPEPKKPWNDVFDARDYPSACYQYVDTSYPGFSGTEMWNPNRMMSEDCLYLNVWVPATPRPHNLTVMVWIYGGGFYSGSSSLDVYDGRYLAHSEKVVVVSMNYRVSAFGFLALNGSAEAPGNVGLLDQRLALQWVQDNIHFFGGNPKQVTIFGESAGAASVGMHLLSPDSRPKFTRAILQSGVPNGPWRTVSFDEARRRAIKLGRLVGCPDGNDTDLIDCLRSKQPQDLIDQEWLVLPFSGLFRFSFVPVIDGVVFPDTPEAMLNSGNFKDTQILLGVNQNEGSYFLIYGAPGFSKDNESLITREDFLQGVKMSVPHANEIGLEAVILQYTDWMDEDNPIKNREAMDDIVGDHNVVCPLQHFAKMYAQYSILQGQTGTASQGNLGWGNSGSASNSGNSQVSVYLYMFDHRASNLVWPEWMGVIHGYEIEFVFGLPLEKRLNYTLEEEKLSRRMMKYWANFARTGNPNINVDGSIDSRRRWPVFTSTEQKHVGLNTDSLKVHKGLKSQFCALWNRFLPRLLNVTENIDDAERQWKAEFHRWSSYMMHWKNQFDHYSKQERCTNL
Description: biochemical. The following applies: for inhibition at 62.5 µg/mL / inhibition at 125 µg/mL / inhibition at 250 µg/mL / inhibition at 500 µg/mL / inhibition at 1000 µg/mL: read-out: AChE Percent inhibition. The method, then:
as §1

The test system of a further assay is S. flexenari. Description: Antibacterial agar well diffusion. The class given is cell-based. The following applies: 24 h, 6.25 mg/mL per well, 37 °C.
In the next assay the test system is E. coli. Description: Antibacterial agar well diffusion. The class given is cell-based, Escherichia coli (ATCC25922). The conditions noted are these: Escherichia coli, 24 h, 6.25 mg/mL per well, 37 °C.
Description: as §2

“And” between values parts separate entries of the source, which are not always exact repeats. Equal values may be shown once.

T1 sequence (P81908 whole entry): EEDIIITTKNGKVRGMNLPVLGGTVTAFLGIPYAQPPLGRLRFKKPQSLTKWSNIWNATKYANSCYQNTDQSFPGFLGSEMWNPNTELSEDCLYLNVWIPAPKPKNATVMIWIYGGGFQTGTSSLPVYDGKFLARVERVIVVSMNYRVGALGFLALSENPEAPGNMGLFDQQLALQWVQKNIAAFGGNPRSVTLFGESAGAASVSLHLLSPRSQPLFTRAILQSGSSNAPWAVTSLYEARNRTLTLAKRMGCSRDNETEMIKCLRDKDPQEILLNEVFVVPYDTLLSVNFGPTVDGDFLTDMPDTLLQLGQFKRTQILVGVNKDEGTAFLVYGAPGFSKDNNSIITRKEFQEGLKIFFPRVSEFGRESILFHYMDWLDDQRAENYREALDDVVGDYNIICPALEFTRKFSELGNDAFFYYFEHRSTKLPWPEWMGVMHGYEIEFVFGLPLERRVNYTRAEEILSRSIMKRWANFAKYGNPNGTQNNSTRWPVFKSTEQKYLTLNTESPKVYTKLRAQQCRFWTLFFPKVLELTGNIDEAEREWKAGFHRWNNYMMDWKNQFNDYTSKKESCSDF

Regarding `COc1ccc2c3c1O[C@H]1C[C@@H](O)C=C[C@@]31CCN(C)C2` [Galantamine, reference compound], in assay [1], the inhibition at 62.5 µg/mL came out at 64.9 ± 0.87%, the inhibition at 125 µg/mL turned out to be 67.9 ± 0.98%, the inhibition at 500 µg/mL stood at 81.83 ± 0.37% and the inhibition at 1000 µg/mL came out at 89.64 ± 0.62%.

`CC1=C(C(=O)O)N2C(=O)[C@@H](NC(=O)[C@H](N)C3=CCC=CC3)[C@H]2SC1` [Std.Drug, Cephradine, reference compound]: in the assay with S. typhi, the Zone of inhibition was 25 mm and 20 mm and 14 mm and 13 mm; the zone of inhibition at 6250 µg/mL was determined as 15 mm.

With `O=C(O)c1cc(O)c(O)c(O)c1` [Gallic acid, gallic acid, reference compound], in assay [2], the “ABTS IC50” value was found to be 39.54 µg/mL. In addition, the ABTS %inhibition in assay [2] (62.5 μg/mL) was determined as 51.68 ± 0.22%; in assay [2] (125 μg/mL), 59.84 ± 0.32%; in assay [2] (250 μg/mL), 66.43 ± 0.29%; in assay [2] (500 μg/mL), 71.88 ± 0.20%; in assay [2] (1000 μg/mL), 75.89 ± 0.20%. The “DPPH IC50” value in assay [3] worked out at 27.06 µg/mL. Besides, the DPPH %inhibition in assay [3] (62.5 μg/mL) is on record as 57.54 ± 0.46%; in assay [3] (125 μg/mL) it was 63.83 ± 1.07%; in assay [3] (250 μg/mL), 69.47 ± 0.46%; in assay [3] (500 μg/mL), 75.45 ± 0.45%; in assay [3] (1000 μg/mL), 81.45 ± 0.65%.

Take `Cc1cccnc1NC(=S)NC1CCCCC1` [Compound 2, 1-cyclohexyl-3-(3-methylpyridin-2-yl)thiourea]: the “ABTS IC50” value in assay [2] was 82.02 µg/mL. Besides, the ABTS %inhibition in assay [2] (62.5 μg/mL) was 45.52 ± 2.80%; in assay [2] (125 μg/mL), 51.10 ± 1.39%; in assay [2] (250 μg/mL) it was 60.39 ± 1.71%; in assay [2] (500 μg/mL), 70.37 ± 2.37%; in assay [2] (1000 μg/mL), 79.87 ± 2.65%. Moreover, the IC50 in assay [1] is 1260 µM; in assay [4], 1480 µM. Also, the inhibition at 62.5 µg/mL in assay [1] came to 31.5 ± 0.71%; in assay [4], 29.7 ± 0.61%. Moreover, the results for the inhibition at 125 µg/mL in assay [1] and in assay [4] were 37.5 ± 0.77% and 35.7 ± 0.77%, respectively. The inhibition at 250 µg/mL in assay [1] amounted to 45.8 ± 0.58%; in assay [4] it was 43.8 ± 0.56%. Besides, the inhibition at 500 µg/mL in assay [1] was determined as 56.45 ± 0.49%; in assay [4] it was 54.6 ± 0.8%. In addition, the inhibition at 1000 µg/mL in assay [1] was 64.79 ± 0.62%; in assay [4] it was 62.6 ± 0.77%. Moreover, the zone of inhibition at 6250 µg/mL came to 11.5 mm in the assay with S. typhi, 13.5 mm in the assay with P. aeruginosa, 11 mm in the assay on S. flexenari and 9.5 mm in the assay with E. coli. Also, the “DPPH IC50” value in assay [3] came to 72.00 µg/mL. The DPPH %inhibition in assay [3] (62.5 μg/mL) is 46.51 ± 2.74%; in assay [3] (125 μg/mL) it was 54.86 ± 2.86%; in assay [3] (250 μg/mL), 64.15 ± 2.10%; in assay [3] (500 μg/mL), 73.41 ± 2.87%; in assay [3] (1000 μg/mL), 81.22 ± 2.89%.

`S=C(Nc1ccccc1)Nc1cccc(Cl)c1` [Compound 6, 1-(3-chlorophenyl)-3-phenylthiourea]: the “ABTS IC50” value in assay [2] was determined as 86.03 µg/mL. The ABTS %inhibition was determined as 44.27 ± 1.53% in assay [2] (62.5 μg/mL); 53.26 ± 2.76% in assay [2] (125 μg/mL); 63.09 ± 1.34% in assay [2] (250 μg/mL); 75.19 ± 2.59% in assay [2] (500 μg/mL); 81.28 ± 2.17% in assay [2] (1000 μg/mL). Further, the IC50 in assay [1] was 216 µM; in assay [4], 329 µM. The inhibition at 62.5 µg/mL in assay [1] came out at 51.61 ± 0.43%; in assay [4] it was 47.61 ± 0.43%. The inhibition at 125 µg/mL in assay [1] amounted to 55.1 ± 0.6%; in assay [4], 52.7 ± 1.01%. Also, the results for the inhibition at 250 µg/mL in assay [1] and in assay [4] were 61.2 ± 1.4% and 57.8 ± 1.5%, respectively. Also, the inhibition at 500 µg/mL in assay [1] was found to be 66.8 ± 7.85%; in assay [4] it was 62.84 ± 0.3%. Also, the inhibition at 1000 µg/mL was 71.6 ± 1.63% in assay [1] and 67.51 ± 0.54% in assay [4]. Further, the zone of inhibition at 6250 µg/mL amounted to 9.5 mm in the assay with S. typhi, 15.5 mm with P. aeruginosa, 10.5 mm with S. flexenari and 8.5 mm in the assay with E. coli. For the same molecule, the “DPPH IC50” value in assay [3] turned out to be 90.30 µg/mL. Moreover, the DPPH %inhibition was determined as 43.49 ± 2.72% in assay [3] (62.5 μg/mL); 53.66 ± 1.17% in assay [3] (125 μg/mL); 61.47 ± 2.74% in assay [3] (250 μg/mL); 76.24 ± 2.61% in assay [3] (500 μg/mL); 82.19 ± 2.32% in assay [3] (1000 μg/mL).

Consider `S=C(Nc1ccc(Cl)cc1)NC1CCCCC1` [Compound 4, 1-(4-chlorophenyl)-3-cyclohexylthiourea], for which the “ABTS IC50” value in assay [2] was 67.01 µg/mL. The ABTS %inhibition in assay [2] (62.5 μg/mL) came to 48.19 ± 1.26%; in assay [2] (250 μg/mL) it was 61.14 ± 1.43%; in assay [2] (500 μg/mL), 71.03 ± 1.61%; in assay [2] (1000 μg/mL), 81.23 ± 1.01%. Moreover, the values for the IC50 in assay [1] and in assay [4] were 814 µM and 928 µM, respectively. In addition, the inhibition at 62.5 µg/mL amounted to 33 ± 1.15% in assay [1] and 31.9 ± 0.48% in assay [4]. The inhibition at 125 µg/mL in assay [1] stood at 42.7 ± 0.89%; in assay [4], 39 ± 0.48%. Moreover, the inhibition at 250 µg/mL was determined as 49 ± 0.58% in assay [1] and 47.9 ± 0.96% in assay [4]. Also, the inhibition at 500 µg/mL in assay [1] came to 63.03 ± 0.23%; in assay [4], 61.6 ± 1.34%. The inhibition at 1000 µg/mL in assay [1] was 71.33 ± 0.49%; in assay [4], 69.6 ± 1.12%. For the same molecule, the zone of inhibition at 6250 µg/mL in the assay with S. typhi turned out to be 11.5 mm; with P. aeruginosa it was 10 mm; with S. flexenari, 13 mm; in the assay on E. coli, 12 mm. In assay [3], the “DPPH IC50” value was 67.11 µg/mL. Moreover, the DPPH %inhibition was found to be 48.18 ± 2.31% in assay [3] (62.5 μg/mL); 54.67 ± 2.08% in assay [3] (125 μg/mL); 63.74 ± 0.81% in assay [3] (250 μg/mL); 72.29 ± 0.27% in assay [3] (500 μg/mL); 82.11 ± 1.20% in assay [3] (1000 μg/mL).

A word on the inhibition: it is the drop in the measured response relative to a control, in per cent. What is called zone of inhibition is the size of the clear area around the sample on an inoculated plate. Low readings indicate a weaker effect on the plate, high ones a stronger effect on the plate. One may read the IC50 as the concentration that inhibits the measured activity by half.

For the origin of these results see publication PMC11141368, “Antioxidant, antibacterial, enzyme inhibition and fluorescence characteristics of unsymmetrical thiourea derivatives” (Heliyon, 2024).
